Test results: patent US20130172308A1, “ANTIMICROBIAL AGENTS” (John Grant COLLINS, priority 2011, published 2013)

What was measured:
[1] = system: S. epidermidis; test: Further MIC assays, whole spectrum bacteria (CAMHB); assay type: cell-based; settings: Table 3; Broth: CAMHB
Method: (§1) Further MIC assays were conducted against five different bacteria with Rubbn (n=7, 10, 12, 16), two rigid dinuclear species (bridges bpm and dppm) and Gentamicin—Whole spectrum bacteria MIC test results (Broth: CAMHB).

[2] = system: S. typhimurium; test: as above; assay type: cell-based; settings: Table 3; Broth: CAMHB
Method: as §1

[3] = system: MRSA (a wild clinical strain from the JCU culture collection); test: MIC determination, broth micro-dilution (CAMHB); assay type: cell-based, methicillin-resistant S. aureus; settings: Table 1; 37° C., 24 h
Method: (§2) Four strains of bacteria were chosen for the susceptibility tests: S. aureus ATCC 25923; MRSA (a wild clinical strain from the JCU culture collection); E. coli ATCC 25922 and P. aeruginosa ATCC 27853. The bacteria were grown on Mueller Hinton agar (OXOID, cat. No. CM0337) and suspended in growth medium cation-adjusted Mueller Hinton broth (CAMHB, OXOID, cat. No. CM0405). The MIC of each complex was determined in duplicate by standard micro-dilution methodology (British Society for Antimicrobial Chemotherapy Working Party, J. Antimicrob. Chemother., 1991, 27(suppl. D), 22) using gentamicin as the positive control. The ruthenium complexes were dissolved in CAMHB to a stock solution of […] and two-fold diluted in the broth in 96-well plates in a final volume of […] in each well. The same volume […] of bacterial suspension was added in each well making a concentration range of 0.25 mg ml^−1 to 128 mg ml^−1 for each complex. The plates were incubated at 37° C. for 24 h. The results are summarised in Table 1 below, using the following abbreviations: • Rubpm=ΔΔ-[{Ru(phen)2}2(μ-2,2′-bipyrimidine)]Cl4 • Rudppm=ΔΔ-[{Ru(phen)2}2(μ-4,6-bis(2-pyridyl)pyrimidine)]Cl4 • Rubb7trinuclear=Δ*Δ*-[{Ru*(phen)2}(μ-bb7){Ru(phen)}(μ-bb7){Ru*(phen)2}]Cl6 (only the two terminal metal centres are chiral, the two central metal centres are racemic) • Rubb7tetranuclear=Δ*Δ*-[{Ru*(phen)2}(μ-bb7) {Ru(phen)}(μ-bb7){Ru(phen)}(μ-bb7)-{Ru*(phen)2}]Cl8 (only the two terminal metal centres are chiral, the two central metal centres are racemic)
(§3) Further MIC assays and Minimum Bactericidal Concentration (MBC) assays were conducted against Gram-positive and Gram-negative bacterial strains using symmetric and non-symmetric, inert and labile complexes.

[4] = system: human red blood cells; test: Haemolytic assay; assay type: cell-based; settings: for First indication (>2%) of haemolysis: 24 h incubation with red blood cells
Method: Freshly-drawn human blood was collected using lithium heparin vacuum blood collection tubes (Vacutainer, BD Australia). Erythrocytes were separated by centrifugation for 10 min at 1000 g at 10° C. and washed six times with phosphate-buffered saline (PBS) solution and diluted with PBS to a 10% solution. The concentration of erythrocytes was determined by haemocrit centrifugation (Biofuge Haemo, Heraeus instruments). A 1% Triton-X solution was prepared as the positive control. The complexes to be tested were dissolved in PBS to a stock solution of 2048 mg ml^−1 and two-fold diluted in PBS in round-bottomed 96-well plates in a final volume of […] in each well. […] red blood cell suspension samples were added to the wells making a concentration range from […] to 512 μg ml^−1 for Rubbn (n=10, 12, 16) and 2 μg ml^−1 to 1024 μg ml^−1 for Rubb7, and the plates with each complex were respectively incubated for 1, 2, 4, 8 and 24 h at 37° C. After incubation, the plates were centrifuged at 1000 g for 4 min. […] of supernatant in each well was transferred to a corresponding well in a new 96-well microtitre plate. The absorbance of each well was measured at 540 nm using a plate reader (Mutiskan Ascent, Thermo). Each complex was analysed in duplicate. The solutions of the metal complex at the same tested concentrations without erythrocytes were measured as a negative control.
The extent of haemolysis induced by incubation of the ruthenium complexes for 24 h with freshly-collected human red blood cells is shown in FIG. 1 and summarised in Table 5 below: […]

[5] = system: E. coli ATCC 25922; test: MIC determination, broth micro-dilution (CAMHB); assay type: cell-based, Escherichia coli; settings: Table 1; 37° C., 24 h
Method: as §2, §3

[6] = system: THP-1 cells; test: Cytotoxicity assay (cell count with haemacytometer); assay type: cell-based, human
Method: Consequently, the toxicity (IC50) against THP-1 cells (a human acute monocytic leukemia cell line and a good model for nucleated eukaryotic cells) was examined (J. […] Human monocytic THP-1 cells were obtained from the American Type Culture Collection (ATCC, Rockville, Md., USA). […] Cells were seeded at a density of 5×10^5 per well in a sterile flat bottom 96-well plate, and incubated with the desired drug concentration in duplicate, to a total volume of […]. The concentration range for all the complexes was between […]. The plates containing each complex were respectively incubated for 24 and 48 h at 37° C. with 5% CO2. After incubation, the concentration of cells in each well was counted with a haemacytometer and IC50 values were calculated and the results are summarise in Table 6 below: […]

[7] = system: VRE; test: Further MIC assays, whole spectrum bacteria (CAMHB); assay type: cell-based, vancomycin-resistant Enterococcus; settings: Table 3; Broth: CAMHB
Method: as §1

[8] = system: E. faecalis; test: as above; assay type: cell-based; parameters: unit not given beside the values; settings: Table 3; Broth: CAMHB
Method: as §1

[9] = system: A. baumanii; test: as above; assay type: cell-based; parameters: unit not given here; settings: Table 3; Broth: CAMHB
Method: as §1

[10] = system: P. aeruginosa ATCC 27853; test: MIC determination, broth micro-dilution (CAMHB); assay type: cell-based, Pseudomonas aeruginosa; settings: Table 1; 37° C., 24 h
Method: as §2, §3

[11] = system: S. aureus ATCC 25923; test: MIC determination, broth micro-dilution (CAMHB); assay type: cell-based, Staphylococcus aureus; settings: Table 1; 37° C., 24 h
Method: as §2, §3

[12] = system: Plasmodium falciparum strain W2; test: [3H]-hypoxanthine growth inhibition assay; assay type: cell-based; settings: Plasmodium falciparum, W2, 96 h
Method: (§4) The in vitro antimalarial activities of two of the dinuclear ruthenium(II) complexes and chloroquine were assessed by exposing P. falciparum strains to ten serially diluted two-fold concentrations of each compound. Parasite growth was measured by uptake of tritiated [^3H]-hypoxanthine into newly synthesised parasitic DNA.
(§5) The [^3H]-hypoxanthine growth inhibition assay (Desjardins et al., 1979 Antimicrobial Agents Chemother 16: 710-718) was used to evaluate the in vitro antimalarial activity of the compounds. Briefly, synchronised parasite cultures (>90% rings, 6 to 8 h post invasion) in [^3H]-RPMI-LPLF complete medium with 0.5% parasitaemia and 2% haematocrit were exposed to the compounds at ten two-fold concentrations, ranging from 10,000 to 20 nM in 96-well microtitre plates. Chloroquine was used as a reference drug. Uninfected RBCs at 2% haematocrit were used as background controls. For the 96 h exposure period, the plates were incubated in the gas mixture at 37° C. for approximately 48 h, followed by the addition of 0.2 μCi of ^3H-hypoxanthine (GE Healthcare, Amersham) in [^3H]-RPMI-1640-LPLF to each well and a further 48 h of incubation and then frozen at −20° C. Plates were thawed and harvested using Tomtech Harvester 96 Mach III and radioactive counts were obtained using Wallac TriLux 1450 Microbeta Liquid Scintillation Counter (Perkin Elmer, USA). All assays were performed in triplicate for each strain and at least on two separate occasions.
(§6) Tritiated hypoxanthine uptake data were analysed in Graphpad Prism V5.0 software (GraphPad Software Inc. USA). The concentrations of the dinuclear ruthenium(II) complexes and chloroquine were transformed into logarithmic values. After subtracting the background values, the data from drug-treated wells were normalised against drug-free control wells. Non-linear regression analysis was carried out of the compound's concentration versus parasitic hypoxanthine incorporation. The in vitro antimalarial activity of the compound is defined as inhibitory concentrations (IC50) and (IC90) that cause 50% and 90% inhibition of parasite growth as determined by measuring [^3H]-hypoxanthine incorporation.

[13] = system: Plasmodium falciparum strain D6; test: [3H]-hypoxanthine growth inhibition assay; assay type: cell-based; settings: Plasmodium falciparum, D6, 96 h
Method: as §4, §5, §6

[14] = all the tested concentrations, over 24 h

| Compound | MIC S. epidermidis [1] | MIC S. typhimurium [2] | MIC MRSA [3] [µg/mL] | First indication (>2%) of haemolysis [4] [µg/mL] | haemolytic activity [4, 14] | MIC E. coli [5] [µg/mL] | IC50 ([6]; 24 h) [µM] | IC50 THP-1 ([6]; 24 h) [µg/mL] | IC50 ([6]; 48 h) [µM] | IC50 THP-1 ([6]; 48 h) [µg/mL] | MIC VRE [7] | MIC E. faecalis [8] | MIC A. baumanii [9] | MIC P. aeruginosa [10] [µg/mL] | MIC S. aureus [11] | haemolytic activity ([4]; at 10 μM, over 24 h) | other results |
| --- | --- | --- | --- | --- | --- | --- | --- | --- | --- | --- | --- | --- | --- | --- | --- | --- | --- |
| Cc1ccnc(-c2cc(CCCCCCCCCCc3ccnc(-c4cc(C)ccn4)c3)ccn2)c1.F[P-](F)(F)(F)(F)F.F[P-](F)(F)(F)(F)F.F[P-](F)(F)(F)(F)F.F[P-](F)(F)(F)(F)F.[Ru+2].[Ru+2].c1cnc2c(c1)ccc1cccnc12.c1cnc2c(c1)ccc1cccnc12.c1cnc2c(c1)ccc1cccnc12.c1cnc2c(c1)ccc1cccnc12 [ΔΔ-Rubb10, [{Ru(phen)2}2(μ-bb10)](PF6)4] | 0.5 | 32 | 4 | 32 | no significant haemolytic activity | 4 | 194 | 300 | 103 | 160 | 4 | 8 | 64 | 64 | 4 µg/mL |  |  |
| ΔΔ-[{Ru(phen)2}2(μ-bb12)](PF6)4 [ΔΔ-Rubb12] | 0.5 | 8 | 1 | 16 |  | 2 | 86 | 135 | 57 | 90 | 2 | 4 | 8 | 16 | 1 µg/mL | essentially exhibited no haemolysis |  |
| CCN(CC)CCCC(C)Nc1ccnc2cc(Cl)ccc12 (centres unmarked) [chloroquine, reference compound] |  |  |  |  |  |  |  |  |  |  |  |  |  |  |  |  | IC50 ([12]; read-out: IC50 W2): 0.176 µM; IC90 ([12]; read-out: IC90 W2): 0.383 µM; IC50 ([13]; read-out: IC50 D6): 0.0098 µM; IC90 ([13]; read-out: IC90 D6): 0.0125 µM |
| ΔΔ-[{Ru(phen)2}2(μ-bb16)](PF6)4 [ΔΔ-Rubb16] | 1 | 8 | 1 | 4 |  | 4 | 48 | 78 | 25 | 40 | 2 | 2 | 8 | 8 | 1 µg/mL | noticeably increased | haemolytic activity ([4]; at 10 μM, for 8 h): low |
| gentamicin [reference compound] | <0.125 | 2 | 16 |  |  | 0.5 |  |  |  |  | 16 | 32 | 16 | 0.125 | ≦0.0625 μg.ml^−1 |  |  |
| Cc1cc[n+]2c(c1)-c1cc(CCCCCCCc3cc[n+]4c(c3)-c3cc(C)cc[n+]3[Ru-4]435([n+]4cccc6ccc7ccc[n+]3c7c64)[n+]3cccc4ccc6ccc[n+]5c6c43)cc[n+]1[Ru-4]213([n+]2cccc4ccc5ccc[n+]1c5c42)[n+]1cccc2ccc4ccc[n+]3c4c21.F[P-](F)(F)(F)(F)F.F[P-](F)(F)(F)(F)F.F[P-](F)(F)(F)(F)F.F[P-](F)(F)(F)(F)F [ΔΔ-Rubb7, [{Ru(phen)2}2(μ-bb7)](PF6)4] | 1 | >128 | 32 | 64 | no significant haemolytic activity | 16 | 266 | 400 | 173 | 260 | 16 | 32 | 64 | 128 | 16 µg/mL |  |  |
